In patent US5545547A, “Enzymes as agricultural chemical adjuvants” (priority 1992, dated 1996):

Key:
Soybeans = assay: Greenhouse multispecies herbicide screen with/without P. mendocina enzyme; assay type: in vivo; details: two weeks after treatment
Description: (§1) Several plant species including weeds and crops are used in these experiments.
(§2) A number of herbicides from various chemical classes were compared in a multispecies screen for percent chlorosis, necrosis and vigor reduction both with and without application of the enzyme from Pseudomonas mendocina ATCC 53552 described earlier. The herbicides were applied to various plants at the manufacturers recommended doses and at 10% and 40% of the recommended dose. Two different enzyme concentrations were used: 0.5 mg/ml (HE) and 0.05 mg/ml (LE) and applied at the rate of 40 gallons/acre. All spraying solutions were at pH 10 and contained 100 mm sodium phosphate each. Ratings were done at 6 and 12 days after the treatment. All the experiments were carried out in a greenhouse.
(§3) Chlorosis--figures represent percent of plants showing chlorosis.
(§4) Necrosis--figures represent percent of plants showing necrosis.
(§5) Vigor--figures represent percent of plants showing decreased vigor.
(§6) Phytotoxicity--figures represent the average percent of chlorosis, necrosis, and vigor for a given sample.
(§7) The method of Example 1 was used except that the enzyme was applied 2 hours prior to administering the agricultural chemical with the following results. Ratings were done two weeks after treatment

Turnip = assay: as above; assay type: in vivo; details: two weeks after treatment
Description: as §1, §2, §3, §4, §5, §6, §7

soybean leaf discs = assay: Uptake of radiolabeled agricultural chemicals into leaf discs; assay type: in vitro ADME
Procedure: Leaf discs (1 cm diameter) were prepared from 9-13 day old soybean plants, and planed them on a nitrocellulose paper that was presoaked with 100 ug/ml stocptomycin in a petri dish. Radioactive chemicals were dissolved in 100 mM sodium phosphate buffer containing 0.05% TRITON X-100 surfactant [drawing 1] where n is an integer from 9 to 10 In addition to TRITON surfactant, (^14 C) uracil solution contained 0.4% ethanol, (^14 C) atrazine contained 10% ethanol (^14 C) indole acetic acid contained 2% ethanol and (^14 C) urea contained 0.2% ethanol. 5 ul of the radioactive chemical solution (9/uci/ml) was applied on the leaf disc and incubated for 5-7 hr at room temperature. After the incubation, leaf discs were rinsed 3 times with 0.025% TRITON X-100 surfactant solution and transferred into separate scintillation vials. Radioactivity taken up by each leaf disc was determined by a scintillation counter after adding 10 ml of Ecolite scintillation fluid into each vial. Ten leaf discs were used for each data point in all experiments. All radioactive chemicals were obtained from Amersham (U.S.A.). The specific activities of the chemicals were as follows:
Cutinase enzyme same as before.
Macerating enzyme, GC219, is an enzyme mixture sold by Genencor which comprises of cellulase, pectinase and hemicellulase.

[1] = system: Pseudomonas mendocina ATCC 53552 lipase, crude preparation of Example 1(C) (includes Lipase 1 and Lipase 2); assay: Binding of p-nitrophenyl substrates and turnover kinetics, crude lipase preparation; assay type: biochemical; details: 0.1M Tris, 0.1 wt. Triton X-100, pH 8.0, 25° C.
Description: The recovered filtrate from the Amicon unit was concentrated to a volume of 3 liters on an Amicon ultrafiltration unit with two Romicon Pm 10 modules. The concentrated material was then dialyzed with 20 liters of 0.01M phosphate buffer, pH 7.5, to remove salts and color. Recovery at this stage averaged about 80%. Total activity for this crude preparation was 8.68×10^6 units. A unit of lipase activity is defined as the amount of enzyme which results in an increase of absorbance at 415 nm of 1.0/minute when incubated at 25° C. with 2.0 mM p-nitrophenylbutyrate in 0.1M pH 8.0 Tris-HCl buffer containing 0.1 wt. adjuvant Triton X-100.
The binding of three p-nitrophenyl substrates and the turnover kinetics were studied for the crude preparation of Example 1(C), where reaction conditions were 0.1M Tris with 0.1 wt. adjuvant Triton X-100, pH 8.0, at 25° C. The substrates were p-nitrophenyl caprylate, p-nitrophenyl laurate, and p-nitrophenyl palmitate, and the data is set out in Table

Trichoderma reesei QM6A = assay: Fungicide uptake in soybean plants, leaf extract rated for inhibition of fungal growth; parameters: key: -no inhibition; +weak inhibition; ++=good inhibition; +++=strong inhibition
Procedure: The difoliate leaflets of 9-13 day old soybeam plants were treated with solutions of cutinase (100 ug/ml), BENOMYL fungicide [1-(butylcarbamoyl)-2-benzimidazolecarbamic acid methyl ester] (1 mg/ml), and GC219 (12.6 mg/ml) alone and BENOMYL fungicide [1-(butylcarbamoyl)-2-benzimidazolecarbamic acid methyl ester] plus enzymes. The solutions were dissolved in 100 mM sodium phosphate, pH 7 containing 0.5% TRITON surfactant [drawing 2] where n is an integer from 9 to 10 X-100. In addition to TRITON X-100 surfactant, [drawing 3] where n is an integer from 9 to 10 the BENOMYL fungicide [1-(butylcarbamoyl)-2-benzimidazolecarbamic acid methyl ester] contained 5% Dimethyl formamide. For each experiment 100 ul of solution was applied in 5 ul droplets to each difoliate leaflet. Duplicate plants were treated in this manner. The treated plants were incubated for two hours under normal greenhouse conditions. Identical solutions as those applied to the plants were also incubated for two hours to assure chemical stability under greenhouse conditions. After the incubation, the treated leaves were cut at the petiole and rinsed with a 0.05% TRITON X-100 surfactant [drawing 4] where n is an integer from 9 to 10 solution. Both difoliates were then ground with a mortar and pestle with 1.5 ml of a 100 mM sodium phosphate, pH 7 buffer. The extract was centrifuged and the supernatant was sterile filtered through a 0.45 um disc. The supernatant was then added to CMA media containing 2% agar to yield a final volume of 10 mls. 5 mls was them poured into a single well in a 6 well culture plate. Serial dilutions were made for each solution to achieve 1:1, 1:2 and 1:4 dilution of the plant extract in the agar.
Once the agar was solidified each well was innoculated with spores of Trichoderma reesei QM6A strain. The plates were incubated at 30° C. for 24 hours and the growth of T. reesei was rated.

CCNc1nc(Cl)nc(NC(C)C)n1 [ATRAZINE, Atrazine]
CHL (chlorosis) (Soybeans; ATRAZINE 10% dose, High Enzyme): 55% | NEC (necrosis) (Soybeans; ATRAZINE 10% dose, High Enzyme): 18% | PHY (phytotoxicity) (Soybeans; ATRAZINE 10% dose, High Enzyme): 12% | VIG (vigor) (Soybeans; ATRAZINE 10% dose, High Enzyme): 13% | CHL (chlorosis) (Soybeans; ATRAZINE 10% dose, Low Enzyme): 38% | NEC (necrosis) (Soybeans; ATRAZINE 10% dose, Low Enzyme): 58% | PHY (phytotoxicity) (Soybeans; ATRAZINE 10% dose, Low Enzyme): 48% | VIG (vigor) (Soybeans; ATRAZINE 10% dose, Low Enzyme): 48% | CHL (chlorosis) (Soybeans; ATRAZINE 10% dose, No Enzyme): 10% | NEC (necrosis) (Soybeans; ATRAZINE 10% dose, No Enzyme): 33% | PHY (phytotoxicity) (Soybeans; ATRAZINE 10% dose, No Enzyme): 34% | VIG (vigor) (Soybeans; ATRAZINE 10% dose, No Enzyme): 50% | CHL (chlorosis) (Soybeans; ATRAZINE 40% dose, High Enzyme): 80% | NEC (necrosis) (Soybeans; ATRAZINE 40% dose, High Enzyme): 88% | PHY (phytotoxicity) (Soybeans; ATRAZINE 40% dose, High Enzyme): 85% | VIG (vigor) (Soybeans; ATRAZINE 40% dose, High Enzyme): 88% | CHL (chlorosis) (Soybeans; ATRAZINE 40% dose, Low Enzyme): 100% | NEC (necrosis) (Soybeans; ATRAZINE 40% dose, Low Enzyme): 100% | PHY (phytotoxicity) (Soybeans; ATRAZINE 40% dose, Low Enzyme): 100% | VIG (vigor) (Soybeans; ATRAZINE 40% dose, Low Enzyme): 100% | CHL (chlorosis) (Soybeans; ATRAZINE 40% dose, No Enzyme): 55% | NEC (necrosis) (Soybeans; ATRAZINE 40% dose, No Enzyme): 63% | PHY (phytotoxicity) (Soybeans; ATRAZINE 40% dose, No Enzyme): 58% | VIG (vigor) (Soybeans; ATRAZINE 40% dose, No Enzyme): 55% | CHL (chlorosis) (Turnip; ATRAZINE 10% dose, High Enzyme): 25% | NEC (necrosis) (Turnip; ATRAZINE 10% dose, High Enzyme): 25% | PHY (phytotoxicity) (Turnip; ATRAZINE 10% dose, High Enzyme): 25% | VIG (vigor) (Turnip; ATRAZINE 10% dose, High Enzyme): 25% | CHL (chlorosis) (Turnip; ATRAZINE 10% dose, Low Enzyme): 50% | NEC (necrosis) (Turnip; ATRAZINE 10% dose, Low Enzyme): 38% | PHY (phytotoxicity) (Turnip; ATRAZINE 10% dose, Low Enzyme): 46% | VIG (vigor) (Turnip; ATRAZINE 10% dose, Low Enzyme): 50% | CHL (chlorosis) (Turnip; ATRAZINE 10% dose, No Enzyme): 38% | NEC (necrosis) (Turnip; ATRAZINE 10% dose, No Enzyme): 23% | PHY (phytotoxicity) (Turnip; ATRAZINE 10% dose, No Enzyme): 37% | VIG (vigor) (Turnip; ATRAZINE 10% dose, No Enzyme): 50% | CHL (chlorosis) (Turnip; ATRAZINE 40% dose, High Enzyme): 75% | NEC (necrosis) (Turnip; ATRAZINE 40% dose, High Enzyme): 88% | PHY (phytotoxicity) (Turnip; ATRAZINE 40% dose, High Enzyme): 84% | VIG (vigor) (Turnip; ATRAZINE 40% dose, High Enzyme): 88% | CHL (chlorosis) (Turnip; ATRAZINE 40% dose, Low Enzyme): 90% | NEC (necrosis) (Turnip; ATRAZINE 40% dose, Low Enzyme): 90% | PHY (phytotoxicity) (Turnip; ATRAZINE 40% dose, Low Enzyme): 90% | VIG (vigor) (Turnip; ATRAZINE 40% dose, Low Enzyme): 90% | CHL (chlorosis) (Turnip; ATRAZINE 40% dose, No Enzyme): 70% | NEC (necrosis) (Turnip; ATRAZINE 40% dose, No Enzyme): 70% | PHY (phytotoxicity) (Turnip; ATRAZINE 40% dose, No Enzyme): 74% | VIG (vigor) (Turnip; ATRAZINE 40% dose, No Enzyme): 83% | Uptake, Radioactivity (cpm) (soybean leaf discs; Herbicide table, atrazine, without any addition of protein): 24007 ± 3984 cpm | Uptake, Radioactivity (cpm) (soybean leaf discs; Herbicide table, pH 7.0, Cutinase 100 ug/ml, Active Enzyme): 42684 ± 2333 cpm | Uptake, Radioactivity (cpm) (soybean leaf discs; Herbicide table, pH 7.0, Cutinase 100 ug/ml, Inactive Protein Control (A126)): 24832 ± 2834 cpm | Uptake, Radioactivity (cpm) (soybean leaf discs; Herbicide table, pH 7.0, Cutinase 200 ug/ml, Active Enzyme): 54133 ± 2874 cpm | Uptake, Radioactivity (cpm) (soybean leaf discs; Herbicide table, pH 7.0, Cutinase 200 ug/ml, Inactive Protein Control (A126)): 31097 ± 2959 cpm

O=C(O)Cc1c[nH]c2ccccc12 [Indole Acetic Acid]
Background uptake, Radioactivity (cpm) (soybean leaf discs): 1292 cpm

CCCCCCCC(=O)Oc1ccc([N+](=O)[O-])cc1 [PNPC, p-nitrophenyl caprylate]
Km [1]: 214 µM | Vmax [1]: 802 μmole/min/mg protein

CCCCCCCCCCCCCCCC(=O)Oc1ccc([N+](=O)[O-])cc1 [PNPP, p-nitrophenyl palmitate]
Km [1]: 183 µM | Vmax [1]: 112 μmole/min/mg protein

O=c1cc[nH]c(=O)[nH]1 [Uracil, uracil]
Uptake, Radioactivity (cpm) (soybean leaf discs; pH 7): 2090 ± 549 cpm | Uptake, Radioactivity (cpm) (soybean leaf discs; pH 10): 507 ± 162 cpm

NC(N)=O [Urea, urea]
Uptake, Radioactivity (cpm) (soybean leaf discs; pH 7): 785 ± 141 cpm | Uptake, Radioactivity (cpm) (soybean leaf discs; pH 10): 398 ± 43 cpm

CCCCNC(=O)n1c(NC(=O)OC)nc2ccccc21 [BENOMYL fungicide, 1-(butylcarbamoyl)-2-benzimidazolecarbamic acid methyl ester]
Inhibition of Fungal Growth (Trichoderma reesei QM6A; BENOMYL alone (1 mg/ml on leaves), 1:1 dilution of plant extract): - | Inhibition of Fungal Growth (Trichoderma reesei QM6A; BENOMYL alone, 1:2 dilution): - | Inhibition of Fungal Growth (Trichoderma reesei QM6A; BENOMYL alone, 1:4 dilution): - | Inhibition of Fungal Growth (Trichoderma reesei QM6A; Cutinase (100 ug/ml) and BENOMYL, 1:1 dilution): +++ | Inhibition of Fungal Growth (Trichoderma reesei QM6A; Cutinase and BENOMYL, 1:2 dilution): ++ | Inhibition of Fungal Growth (Trichoderma reesei QM6A; Cutinase and BENOMYL, 1:4 dilution): + | Inhibition of Fungal Growth (Trichoderma reesei QM6A; GC219 (12.6 mg/ml) and BENOMYL, 1:1 dilution): ++ | Inhibition of Fungal Growth (Trichoderma reesei QM6A; GC219 and BENOMYL, 1:2 dilution): + | Inhibition of Fungal Growth (Trichoderma reesei QM6A; GC219 and BENOMYL, 1:4 dilution): -

CCCCCCCCCCCC(=O)Oc1ccc([N+](=O)[O-])cc1 [PNPL, p-nitrophenyl laurate]
Km [1]: 167 µM | Vmax [1]: 214 μmole/min/mg protein

CN(C)C(=O)Nc1ccc(Cl)c(Cl)c1 [Diuron, diuron]
Uptake, Radioactivity (cpm) (soybean leaf discs; Herbicide table, Diuron, without any addition of protein): 5739 ± 1376 cpm | Uptake, Radioactivity (cpm) (soybean leaf discs; Herbicide table, pH 10, Cutinase 200 ug/ml, Active Enzyme): 8592 ± 803 cpm | Uptake, Radioactivity (cpm) (soybean leaf discs; Herbicide table, pH 10, Cutinase 200 ug/ml, Inactive Protein Control (A126)): 6878 ± 2126 cpm
